Assay results reported in US10889805B2, “Intestinal epithelioid cells” (National Institutes of Biomedical Innovation, Health and …, priority 2015, dated 2021).

Assays:
HiPS-ELC-TFs = assay: TEER of HiPS-ELC-TFs (tight junction function); format: cell-based, human; conditions: under action of C10 (tight junction opener); without C10 about 430; FIG. 18A
Text: The tight junction function was confirmed by measuring TEER.

CYP3A4 [1] = tested on: CYP3A4
Text: (§1) As comparative cells, Caco-2 cells and LS180 cells were similarly investigated.

ANPEP = ANPEP expression by quantitative real-time RT-PCR in cells differentiating from human iPS cells to enterocyte-like cells; format: cell-based; conditions: compound added with BIO and DAPT, 5 days culture; versus control without the compounds; FIG. 2B
Experimental: (§2) The definitive endoderm cells generated from the human iPS cell line (Tic) by the method described in Example 1 above were further cultured for 15 days using the medium 3. During a period from day 4 to day 19 after the initiation of differentiation induction, BIO (5 μM) and DAPT (10 μM) were added to the culture system. Simultaneously with the addition of the BIO and the DAPT, the cells were further cultured for 5 days using the medium 3 supplemented with any one of phorbol-myristate-acetate (PMA), transforming growth factor β1 (TGEβ1), Wortmannin, Noggin, SB431542, Follistatin, EGF, R-spondin1, Pentagastrin, or Wnt3a (FIG. 2A and FIG. 3A).
(§3) With regard to the measurement of the enterocyte markers ANPEP and VILLIN, each of the enterocyte markers was measured by a quantitative real-time RT-PCR method using SYBR Green gene expression assays (APPLIED BIOSYSTEMS). […] Thus, high expressions of ANPEP and VILLIN were found when the cells were cultured in the system containing SB431542, EGF, or Wnt3a.
The quantitative real-time RT-PCR was performed by the following method. With the use of ISOGEN (NIPPON GENE), total RNA was collected from the enterocyte-like cells obtained by differentiation induction from the human iPS cells. Each total RNA was treated with RNase-free DNaseI (NEW ENGLAND BIOLABS), and then subjected to a reverse transcription reaction using […] VILO cDNA Synthesis Kit (INVITROGEN) to synthesize complementary DNA (cDNA). As a positive control, the total RNA (CLONTECH, BIOCHAIN four lots in total) of a human adult small intestine (human adult intestine: hereinafter sometimes referred to as “AI”) tissue to be used was similarly subjected to cDNA synthesis. A quantitative real-time RT-PCR method using SYBR Green gene expression assays (APPLIED BIOSYSTEMS) was performed, and quantification was performed with STEPONEPLUS real-time PCR System (APPLIED BIOSYSTEMS).

VILLIN = VILLIN expression by quantitative real-time RT-PCR in cells differentiating from human iPS cells to enterocyte-like cells; format: cell-based; conditions: compound added with BIO and DAPT, 5 days culture; versus control without the compounds; FIG. 3B
Experimental: as §2, §3
The quantitative real-time RT-PCR was performed by the following method. […] A quantitative real-time RT-PCR method using SYBR Green gene expression assays (APPLIED BIOSYSTEMS) was performed, and quantification was performed with STEPONEPLUS real-time PCR System (APPLIED BIOSYSTEMS).

CYP3A4 [2] = tested on: CYP3A4; remark: listed apart in the source
Experimental: As control cells, Caco-2 cells were similarly subjected to measurement. The expression level of the gene was measured by a real-time RT-PCR method.
as §1

Row | Compound | CYP3A4 expression induction (CYP3A4 [1]) | expression of ANPEP (ANPEP) | expression of VILLIN (VILLIN) | also measured
1 | CCCCCCCCCC(=O)O [C10, capric acid] | – | – | – | TEER value of the HiPS-ELC-TFs (HiPS-ELC-TFs): ~0 Ω·cm^2
2 | CCC1(c2ccccc2)C(=O)NC(=O)NC1=O [PB, phenobarbital] | significant expression induction | – | – | –
3 | CCCCCCCCCCCCCC(=O)O[C@@H]1[C@@H](C)[C@@]2(O)[C@@H](C=C(CO)C[C@]3(O)C(=O)C(C)=C[C@@H]23)[C@@H]2C(C)(C)[C@]12OC(C)=O [PMA, phorbol-myristate-acetate] | – | high value | – | –
4 | NC(=O)c1ccc(-c2nc(-c3ccc4c(c3)OCO4)c(-c3ccccn3)[nH]2)cc1 [SB431542] | – | high value | high value | –
5 | C=C1CC[C@H](O)C/C1=C/C=C1\CCC[C@]2(C)[C@@H]([C@H](C)CCCC(C)C)CC[C@@H]12 [VD3, vitamin D3] | significant expression induction | – | – | CYP3A4 induction (CYP3A4 [2]): confirmed; CYP3A4 gene expression level increase as compared to DMSO action group (CYP3A4 gene): about 100 fold; CYP3A4 protein expression level (CYP3A4 protein): increased
6 | epidermal growth factor [EGF] | – | high value | high value | –
